Experiment [1] relates to NF-kB in HCT116 colon cancer cells. Conditions: cited from earlier work.
Experiment [2] relates to NF-kB and c-myc mRNA expression in HL-60 cells. Nature of the experiment: NF-kB and c-myc mRNA expression levels by real time PCR. It is filed as cell-based. The note with it: RT-PCR. The text has this: (§1) In order to determine anti-carcinogenic effect of the inventive compound acute promyelocytic leukaemia (HL-60) and chronic myelogenous leukaemia (K-562) cells were used to prepare cancer cell cultures under suitable conditions. Both leukemic cell lines were subjected to the following methods: • Determination of cytotoxicity / MTT test; • Determination of apoptotic effect using flow cytometry device with Annexin V-FITC/7-AAD kit; • Determination of apoptotic effect using flow cytometry device with caspase-3/7 activation; • Determination of mitochondrial membrane integrity of cells using JC-1 dyeing method; • Determination of apoptotic DNA using DNA fragmentation method with agarose gel; • Determination of NF-kB and c-myc mRNA expression levels using real time PCR (polymerase chain reaction) method; • Gene panel study using RT-PCR method.
On the technique in general: Real-time PCR tracks product formation cycle by cycle.

Experiment [3] concerns NF-kB and c-myc mRNA expression in K562 cells. The description is as above. It is filed as cell-based. Conditions: RT-PCR.
From the text: as §1

The test system of experiment [4] is K562 cells. Nature of the experiment: Apoptotic effect by flow cytometry with Annexin V-FITC/7-AAD kit. It counts as cell-based.
From the text: as §1
In general terms: Flow cytometry measures light scatter and fluorescence of single cells or particles in a stream.

The subject of experiment [5] is NF-kB in HT-29 colon cancer cells. The note with it: cited from earlier work.
The subject of a further experiment is NF-kB in Caco2 cells. The note with it: cited from earlier work.
Experiment [6] concerns NF-kB levels in MM.1S cells. Conditions: 12 nmol/mL, 12th and 24th hours of incubation, ELISA; cited from earlier work. Background: In an ELISA, binding on a coated surface is turned into a signal by an enzyme label.
The test system of experiment [7] is HL-60 cells. Briefly: Mitochondrial membrane integrity, JC-1 dyeing method. It counts as cell-based. The note with it: 12.5 µM (increase starting from 1.5 µM).
From the text: as §1

Experiment [8] has as its system K562 cells. The description is as above. It counts as cell-based. The note with it: 12.5 µM.
From the text: as §1

Experiment [9] deals with NFkB-1, p53, PIK3CA, BCL-3, ICAM1, KRAS and BCR genes in K562 cells. Nature of the experiment: Gene panel study by RT-PCR. It counts as cell-based. The note with it: in comparison to control and Bortezomib groups.
From the text: as §1
(§2) The genes used in gene panel study with RT-PCR method include; NFKB-1, TNF, RELA, NMI, TP53, IL-6, TP53, PIK3CA, NFKB-2, BCL-3, NFKBIA, RELB, ICAM1, IL-8, KRAS, BCR, GAPDH.

Experiment [10] concerns NFkB-1, p53, PIK3CA, BCL-3, ICAM1, KRAS and BCR genes in HL-60 cells. Briefly: Gene panel study by RT-PCR. It counts as cell-based. The note with it: in comparison to control and Bortezomib groups, decrease more effective than in K562 cells.
From the text: as §1, §2

The test system of experiment [11] is K562 cells. Briefly: Apoptotic effect by flow cytometry with caspase-3/7 activation. It counts as cell-based. Conditions: 12.5 µM, 24 hours of incubation.
From the text: as §1

The next experiment deals with HL-60 cell line. Nature of the experiment: Apoptotic effect by flow cytometry with Annexin V-FITC/7-AAD kit. It counts as cell-based.
From the text: as §1

Experiment [12] relates to HL-60 cells. Nature of the experiment: Determination of cytotoxicity / MTT test. It is filed as cell-based.
From the text: as §1

Experiment [13] has as its system K562 cells. Briefly: Determination of cytotoxicity / MTT test. It is filed as cell-based.
From the text: as §1

For `CC(C)C[C@H](NC(=O)[C@H](Cc1ccccc1)NC(=O)c1cnccn1)B(O)O` [Bortezomib, reference compound], the NF-kB inhibition entry in experiment [1] is on record as “NF-kB inhibition was observed”; in experiment [5] it was “NF-kB inhibition was observed”; in the experiment on NF-kB in Caco2 cells, “not observed”. For the same compound, the “expression of NF-kB gene” value in experiment [2] and in [3] was “decreases expression” each time. The “early apoptotic cell ratio” value with K562 cells [4] (K562 cells, 3.12 µM, 24th hour) was found to be 18.1%.
In the case of `CC(C)C[C@H](NC(=O)CNC(=O)c1cc(Cl)ccc1Cl)B(O)O` [MLN2238], the NF-kB levels result in experiment [6] is given as “significant decreases”.
By IC50 is commonly meant the concentration that gives 50% inhibition. The low end stands for greater potency in that assay, the high end for weaker potency in that assay. “(4-(2-amino-2-(10,11-dioxo-10,11-dihydro-5H-imidaso[1,5,4,3-lmn][1,10]phenanthrolin-5-il]ethyl]phenyl]boronic acid [inventive compound]”: the “ratio of JC-1 positive cells” value was 37.1% with HL-60 cells [7] and 14.7% in the experiment on K562 cells [8]. Also, the results for the c-myc expression result in experiment [2] and in experiment [3] (versus control group) were “decreased” and “higher than control group values”, respectively. Further, the “expression of NF-kB gene” value in [2] and in experiment [3] was “decreases expression” each time. Besides, the “expression of NFkB-1, p53, PIK3CA, BCL-3, ICAM1, KRAS and BCR genes” value in [9] and in experiment [10] was “decreases expression” throughout. In the experiment on K562 cells [11], the “increase in the ratio of caspase 3/7 positive cells, K562 cells in comparison to HL-60 cells” value is listed as 2 times. The apoptotic cell ratio in the experiment with K562 cells [4] (K562 cells, 1.5 µM) is recorded as 13.7%. In addition, in the experiment on K562 cells [4] (K562 cells, 12.5 µM), the “early and late apoptotic cell rate” value is listed as 38.2%. Further, in the experiment on K562 cells [4] (K562 cells, 1.5, 3.12, 6.25 and 12.5 µM, 24th hour), the apoptotic effect entry was “increased the apoptotic effect”. Further, the “early-late apoptotic and necrotic cell rates” value in the experiment on K562 cells [4] (K562 cells, concentrations of 6.5 and 12.5 µM, compared to control) was “increase compared to control”. Also, the early apoptotic effect entry in the experiment with HL-60 cell line (Annexin-V/7-AAD) is given as “has not displayed early apoptotic effect”. In the experiment with HL-60 cell line (concentrations of 3.12 µM and more, compared to control), the necrotic cell rates entry is given as “increase compared to control”. For the same compound, the IC50 in the experiment on HL-60 cells [12] (24th hour) was 2160 nM; with HL-60 cells [12] (48th hour) it was 2850 nM; in the experiment on K562 cells [13] (24th hour), 2.62 µM; in the experiment with K562 cells [13] (48th hour), 3.41 µM.
